Assays:
Experiment in all cases: relative viability (nuclei count vs DMSO), 5 days (fraction); higher = more cells survive
Mirin + Alpelisib = compound: N=C1NC(=O)/C(=C/c2ccc(O)cc2)S1 [Mirin] + Cc1nc(NC(=O)N2CCC[C@H]2C(N)=O)sc1-c1ccnc(C(C)(C)C(F)(F)F)c1 [Alpelisib] (partner 2 µM)
Method in brief: (§1)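 Relative viability divides the nuclei count in treated wells by that in vehicle wells. Lung cancer cell lines were seeded in 1536-well plates, dosed by pin tool the next day, and fixed and stained after 5 days in one step with final 0.05% Triton X-100, 1% formaldehyde and 1 ug/ml Hoechst. Dosing was a single drug or a fixed anchor-drug dose plus five library-drug doses (not always all listed) in √10 steps, and values are medians of duplicate plates imaged at 4×.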

Mirin + Palbociclib = compound: N=C1NC(=O)/C(=C/c2ccc(O)cc2)S1 [Mirin] + CC(=O)c1c(C)c2cnc(Nc3ccc(N4CCNCC4)cn3)nc2n(C2CCCC2)c1=O [Palbociclib] (partner 0.5 µM)
Method in brief: as §1

[1] = compound: CCn1c(-c2nonc2N)nc2cnc(Oc3cccc(NC(=O)c4ccc(OCCN5CCOCC5)cc4)c3)cc21 + Cc1cc(Nc2cc(N3CCN(C)CC3)nc(Sc3ccc(NC(=O)C4CC4)cc3)n2)n[nH]1 [Tozasertib] (partner 0.1 µM)
Method in brief: as §1

Mirin + Decitabine = compound: N=C1NC(=O)/C(=C/c2ccc(O)cc2)S1 [Mirin] + Nc1ncn([C@H]2C[C@H](O)[C@@H](CO)O2)c(=O)n1 [Decitabine] (partner 2 µM)
Method in brief: as §1

Cell Line | relative viability (Mirin + Alpelisib; first compound 0.25 µM) | relative viability (Mirin + Alpelisib; first compound 0.7906 µM) | relative viability (Mirin + Alpelisib; first compound 2.5 µM) | relative viability (Mirin + Alpelisib; first compound 7.906 µM) | relative viability (Mirin + Alpelisib; first compound 25 µM) | relative viability (Mirin + Palbociclib; first compound 0.25 µM) | relative viability (Mirin + Palbociclib; first compound 0.7906 µM) | relative viability (Mirin + Palbociclib; first compound 2.5 µM) | relative viability (Mirin + Palbociclib; first compound 7.906 µM) | relative viability (Mirin + Palbociclib; first compound 25 µM) | relative viability ([1]; first compound 0.04 µM) | relative viability ([1]; first compound 0.1265 µM) | relative viability ([1]; first compound 0.4 µM) | relative viability ([1]; first compound 1.265 µM) | relative viability ([1]; first compound 4 µM) | relative viability (Mirin + Decitabine; first compound 0.25 µM) | relative viability (Mirin + Decitabine; first compound 0.7906 µM) | relative viability (Mirin + Decitabine; first compound 2.5 µM) | relative viability (Mirin + Decitabine; first compound 7.906 µM) | relative viability (Mirin + Decitabine; first compound 25 µM)
SW 1573 | 0.529 | 0.72 | 0.794 | 0.665 | 0.508 | 0.366 | 0.42 | 0.375 | 0.42 | 0.292 | 0.255 | 0.149 | 0.12 | 0.145 | 0.0839 | 0.605 | 0.61 | 0.482 | 0.412 | 0.247
LOU-NH91 | 0.726 | – | 0.728 | 0.65 | 0.747 | 0.548 | 0.569 | 0.529 | 0.519 | 0.555 | 0.631 | 0.518 | 0.45 | 0.353 | 0.369 | 0.799 | 0.843 | 0.874 | 0.9 | 1.03
LXF-289 | 1.03 | 1.05 | 1.06 | 1.13 | 1.03 | 0.585 | 0.648 | 0.591 | 0.623 | 0.701 | 0.221 | 0.198 | 0.195 | 0.104 | 0.0834 | 0.347 | 0.394 | 0.335 | 0.347 | 0.387
NCI-H1299 | 1.01 | 1.16 | 1.06 | 0.622 | 1.21 | – | – | – | – | – | – | – | – | – | – | – | – | – | – | –
HARA | 0.889 | 0.968 | 0.858 | 0.805 | 0.612 | 0.273 | 0.277 | 0.265 | 0.293 | 0.268 | 0.11 | 0.0979 | 0.093 | 0.13 | 0.0876 | 0.768 | – | 0.644 | 0.653 | 0.442
LU99A | 0.541 | 0.518 | 0.498 | 0.376 | 0.352 | 0.412 | 0.339 | 0.425 | 0.358 | 0.339 | 0.293 | 0.295 | 0.295 | 0.233 | 0.199 | 0.877 | 0.785 | 0.94 | 0.892 | 0.736
201T | 1.01 | 1 | 1.02 | 1.11 | 1.14 | 0.365 | 0.413 | 0.353 | 0.348 | 0.395 | 1.02 | 0.937 | 0.958 | 0.919 | 1.01 | 0.877 | 0.885 | 0.842 | 0.939 | 1
HCC-827 | 1.02 | 1.02 | 0.958 | 1.01 | 1.12 | 0.524 | 0.37 | 0.459 | 0.439 | 0.418 | 0.453 | 0.434 | 0.387 | 0.383 | 0.346 | 0.17 | 0.262 | 0.36 | 0.308 | 0.351
NCI-H1666 | 0.869 | 1.01 | 0.884 | 0.826 | 0.528 | 0.684 | 0.665 | 0.64 | 0.627 | 0.662 | 0.65 | 0.675 | 0.582 | 0.368 | 0.326 | 0.543 | 0.676 | 0.76 | 0.654 | 0.692
NCI-H1915 | 1.04 | – | 1.09 | 0.948 | 1.08 | 0.502 | 0.48 | 0.503 | 0.504 | 0.438 | 0.499 | 0.457 | 0.417 | 0.396 | 0.406 | 0.275 | 0.252 | 0.278 | 0.255 | 0.255
NCI-H2009 | 1.1 | 1.27 | 1.19 | 1.12 | 1.13 | 0.221 | 0.262 | 0.162 | 0.202 | 0.238 | 0.745 | 0.635 | 0.53 | 0.331 | 0.275 | 0.354 | 0.373 | 0.425 | 0.361 | 0.405
ChaGo-K-1 | – | – | – | – | – | 0.915 | 0.961 | 0.973 | 0.919 | 0.68 | 0.242 | 0.244 | 0.232 | 0.211 | 0.165 | 0.412 | 0.476 | 0.545 | 0.516 | 0.434
COR-L 105 | 0.914 | 1.26 | 1.13 | 0.925 | 1.04 | 0.426 | 0.415 | 0.376 | 0.432 | 0.42 | 0.339 | 0.3 | 0.308 | 0.308 | 0.308 | 0.596 | 0.698 | 0.744 | 0.667 | 0.63
NCI-H2170 | 0.792 | 0.83 | 0.909 | 0.714 | 0.699 | 0.415 | 0.379 | 0.374 | 0.361 | 0.436 | 0.743 | 0.651 | 0.786 | 0.553 | 0.515 | 0.462 | 0.483 | 0.45 | 0.415 | 0.411

From the supplement of paper PMC10307832
